Source: patent US20100267561A1, “HERBICIDAL PYRIDAZINONE DERIVATIVES” (priority 2007, published 2010)

Columns and labels:
Test in all cases: Test E pre-/postemergence plant response
Assay type in all cases: in vivo
Settings in all cases: scale 0 to 100
[1] = tested on: quackgrass (Elytrigia repens)
Procedure, shortened: (§1)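 Pre/post herbicide screen; formulation: non-phytotoxic solvent mix + surfactant. Post timing 1–4 leaves (2–18 cm ht). Greenhouse 14–21 d; visual 0 (none) to 100 (complete control) vs controls.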

[2] = tested on: purple nutsedge (Cyperus rotundus)
Procedure, shortened: as §1

[3] = tested on: guineagrass (Panicum maximum)
Procedure, shortened: as §1

[4] = tested on: black mustard (Brassica nigra)
Procedure, shortened: as §1

[5] = tested on: southern (S.) sandbur (Cenchrus echinatus)
Procedure, shortened: as §1

[6] = tested on: common purslane (Portulaca oleracea)
Procedure, shortened: as §1

[7] = tested on: Italian ryegrass (Lolium multiflorum)
Procedure, shortened: as §1

[8] = tested on: large crabgrass (Digitaria sanguinalis)
Procedure, shortened: as §1

[9] = tested on: pitted morningglory (Ipomoea lacunosa)
Procedure, shortened: as §1

[10] = tested on: goosegrass (Eleusine indica)
Procedure, shortened: as §1

[11] = tested on: surinam grass (Brachiaria decumbens)
Procedure, shortened: as §1

## Cc1cc(-c2ccc(Cl)cc2)nn1-c1c(OS(C)(=O)=O)cnn(C)c1=O [Compound 36]
[1]; 16 g ai/ha, Preemergence
  Plant response rating, Quackgrass: 20
[1]; 31 g ai/ha, Preemergence
  Plant response rating, Quackgrass: 50
[1]; 62 g ai/ha, Preemergence
  Plant response rating, Quackgrass: 70
[1]; Postemergence, 8 g ai/ha
  Plant response rating, Quackgrass: 0
[1]; Postemergence, 16 g ai/ha
  Plant response rating, Quackgrass: 0
[1]; Postemergence, 31 g ai/ha
  Plant response rating, Quackgrass: 30
[1]; Postemergence, 62 g ai/ha
  Plant response rating, Quackgrass: 35
[2]; 16 g ai/ha, Preemergence
  Plant response rating, Nutsedge, Purple: 0
[2]; 31 g ai/ha, Preemergence
  Plant response rating, Nutsedge, Purple: 0
[2]; 62 g ai/ha, Preemergence
  Plant response rating, Nutsedge, Purple: 0
[2]; Postemergence, 8 g ai/ha
  Plant response rating, Nutsedge, Purple: 0
[2]; Postemergence, 16 g ai/ha
  Plant response rating, Nutsedge, Purple: 0
[2]; Postemergence, 31 g ai/ha
  Plant response rating, Nutsedge, Purple: 0
[2]; Postemergence, 62 g ai/ha
  Plant response rating, Nutsedge, Purple: 0
[3]; 16 g ai/ha, Preemergence
  Plant response rating, Guineagrass: 100
[3]; 31 g ai/ha, Preemergence
  Plant response rating, Guineagrass: 100
[3]; 62 g ai/ha, Preemergence
  Plant response rating, Guineagrass: 100
[3]; Postemergence, 8 g ai/ha
  Plant response rating, Guineagrass: 35
[3]; Postemergence, 16 g ai/ha
  Plant response rating, Guineagrass: 75
[3]; Postemergence, 31 g ai/ha
  Plant response rating, Guineagrass: 90
[3]; Postemergence, 62 g ai/ha
  Plant response rating, Guineagrass: 90
[4]; 8 g ai/ha, Preemergence
  Plant response rating, Mustard, Black: 0
[4]; 16 g ai/ha, Preemergence
  Plant response rating, Mustard, Black: 0
[4]; 31 g ai/ha, Preemergence
  Plant response rating, Mustard, Black: 0
[4]; 62 g ai/ha, Preemergence
  Plant response rating, Mustard, Black: 0
[4]; Postemergence, 8 g ai/ha
  Plant response rating, Mustard, Black: 0
[4]; Postemergence, 16 g ai/ha
  Plant response rating, Mustard, Black: 0
[4]; Postemergence, 31 g ai/ha
  Plant response rating, Mustard, Black: 0
[4]; Postemergence, 62 g ai/ha
  Plant response rating, Mustard, Black: 0
[5]; 16 g ai/ha, Preemergence
  Plant response rating, Sandbur, S.: 90
[5]; 31 g ai/ha, Preemergence
  Plant response rating, Sandbur, S.: 100
[5]; 62 g ai/ha, Preemergence
  Plant response rating, Sandbur, S.: 100
[5]; Postemergence, 8 g ai/ha
  Plant response rating, Sandbur, S.: 40
[5]; Postemergence, 16 g ai/ha
  Plant response rating, Sandbur, S.: 65
[5]; Postemergence, 31 g ai/ha
  Plant response rating, Sandbur, S.: 80
[5]; Postemergence, 62 g ai/ha
  Plant response rating, Sandbur, S.: 85
[6]; 16 g ai/ha, Preemergence
  Plant response rating, Purslane: 0
[6]; 31 g ai/ha, Preemergence
  Plant response rating, Purslane: 0
[6]; 62 g ai/ha, Preemergence
  Plant response rating, Purslane: 0
[6]; Postemergence, 8 g ai/ha
  Plant response rating, Purslane: 0
[6]; Postemergence, 16 g ai/ha
  Plant response rating, Purslane: 0
[6]; Postemergence, 31 g ai/ha
  Plant response rating, Purslane: 0
[6]; Postemergence, 62 g ai/ha
  Plant response rating, Purslane: 0
[7]; 16 g ai/ha, Preemergence
  Plant response rating, Ryegrass, Italian: 100
[7]; 31 g ai/ha, Preemergence
  Plant response rating, Ryegrass, Italian: 100
[7]; 62 g ai/ha, Preemergence
  Plant response rating, Ryegrass, Italian: 100
[7]; Postemergence, 8 g ai/ha
  Plant response rating, Ryegrass, Italian: 0
[7]; Postemergence, 16 g ai/ha
  Plant response rating, Ryegrass, Italian: 35
[7]; Postemergence, 31 g ai/ha
  Plant response rating, Ryegrass, Italian: 60
[7]; Postemergence, 62 g ai/ha
  Plant response rating, Ryegrass, Italian: 80
[8]; 8 g ai/ha, Preemergence
  Plant response rating, Crabgrass, Large: 35
[8]; 16 g ai/ha, Preemergence
  Plant response rating, Crabgrass, Large: 95
[8]; 31 g ai/ha, Preemergence
  Plant response rating, Crabgrass, Large: 98
[8]; 62 g ai/ha, Preemergence
  Plant response rating, Crabgrass, Large: 98
[8]; Postemergence, 8 g ai/ha
  Plant response rating, Crabgrass, Large: 65
[8]; Postemergence, 16 g ai/ha
  Plant response rating, Crabgrass, Large: 70
[8]; Postemergence, 31 g ai/ha
  Plant response rating, Crabgrass, Large: 75
[8]; Postemergence, 62 g ai/ha
  Plant response rating, Crabgrass, Large: 80
[9]; 16 g ai/ha, Preemergence
  Plant response rating, Morningglory: 0
[9]; 31 g ai/ha, Preemergence
  Plant response rating, Morningglory: 0
[9]; 62 g ai/ha, Preemergence
  Plant response rating, Morningglory: 0
[9]; Postemergence, 8 g ai/ha
  Plant response rating, Morningglory: 0
[9]; Postemergence, 16 g ai/ha
  Plant response rating, Morningglory: 0
[9]; Postemergence, 31 g ai/ha
  Plant response rating, Morningglory: 0
[9]; Postemergence, 62 g ai/ha
  Plant response rating, Morningglory: 0
[10]; 8 g ai/ha, Preemergence
  Plant response rating, Goosegrass: 30
[10]; 16 g ai/ha, Preemergence
  Plant response rating, Goosegrass: 98
[10]; 31 g ai/ha, Preemergence
  Plant response rating, Goosegrass: 98
[10]; 62 g ai/ha, Preemergence
  Plant response rating, Goosegrass: 100
[10]; Postemergence, 8 g ai/ha
  Plant response rating, Goosegrass: 0
[10]; Postemergence, 16 g ai/ha
  Plant response rating, Goosegrass: 35
[10]; Postemergence, 31 g ai/ha
  Plant response rating, Goosegrass: 40
[10]; Postemergence, 62 g ai/ha
  Plant response rating, Goosegrass: 75
[11]; 16 g ai/ha, Preemergence
  Plant response rating, Surinam Grass: 95
[11]; 31 g ai/ha, Preemergence
  Plant response rating, Surinam Grass: 100
[11]; 62 g ai/ha, Preemergence
  Plant response rating, Surinam Grass: 100
[11]; Postemergence, 8 g ai/ha
  Plant response rating, Surinam Grass: 65
[11]; Postemergence, 16 g ai/ha
  Plant response rating, Surinam Grass: 65
[11]; Postemergence, 31 g ai/ha
  Plant response rating, Surinam Grass: 80
[11]; Postemergence, 62 g ai/ha
  Plant response rating, Surinam Grass: 100
